Literature values in patent publication US20140235552A1 (priority 2013, published 2014).
No end group written: not given here.

How the values were obtained:
gastrin levels = details: 90 mg/day for 6 years or greater; cited from earlier work
[1] = tested on: patients with type 2 diabetes; details: 12 weeks, cited from earlier work
beta cell mass = details: after infusion in rats; cited from earlier work
[2] = tested on: human pancreatic ductal tissue; details: in vitro, without epidermal growth factor; cited from earlier work

Cc1c(OCC(F)(F)F)ccnc1C[S+]([O-])c1nc2ccccc2[nH]1 (stereo not shown) [Lansoprazole, 1H-Benzimidazole,2-[[[3-methyl-4-(2,2,2-trifluoroethoxy)-2-pyridinyl]methyl]sulfinyl]-2-[[[3-Methyl-4-(2,2,2-trifluoroethoxy)-2-pyridyl]-methyl]sulfinyl]benzimidazole]
gastrin levels relative to normal (gastrin levels): ~7 fold | safety profile (gastrin levels): sustained safety profile

COc1ccc2nc([S@@+]([O-])Cc3ncc(C)c(OC)c3C)[nH]c2c1 [esomeprazole]
increase in area under the curve (AUC) of gastrin ([1]; 20 type 2 diabetes patients, 40 mg): 9 fold | insulin secretion, glycaemic control or cardiovascular disease biomarkers ([1]; type 2 diabetes, authors' conclusion): did not improve | change in insulin AUC ([1]; type 2 diabetes, inventor's reading of the published data): no decline

gastrin: gastrointestinal hormone demonstrated to result in new beta cell formation (QGPWLEEEEEAYGWMDF; ends and bridges not checked; UniProt P01350 76-92, looked up)
beta cell mass (beta cell mass): doubling | beta cell neogenesis from human pancreatic ductal tissue [2]: induce beta cell neogenesis
